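Step 1: Grow cells in 96-well plates. Step 2: Expose to compound for 48 hours at 5 concentrations. Step 3: Interpolate endpoints linearly; if unreached, use highest concentration. Abbreviation: GI50, concentration required for 50% inhibition of growth.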 Activity calls are given as the source filed them. No stated cut-off is given here; in the data, active = GI50 up to about 1.1 µM and inactive = higher.
Experiments:
Experiment in all cases: NCI tumour cell line growth inhibition, 48 h
A498 = system: A498
A549 = system: A549
CCRF-CEM = system: CCRF-CEM
COLO 205 = system: COLO 205
DLD-1 = system: DLD-1
DMS-114 = system: DMS-114
DMS-273 = system: DMS-273
EKVX = system: EKVX
HCC 2998 = system: HCC 2998
HCT-116 = system: HCT-116
HCT-15 = system: HCT-15
HL-60 = system: HL-60
HOP-18 = system: HOP-18
HOP-62 = system: HOP-62
HT-29 = system: HT-29
IGROV-1 = system: IGROV-1
K562 = system: K562
KM-20L2 = system: KM-20L2
KM12 = system: KM12
LOX IMVI = system: LOX IMVI
M19-MEL = system: M19-MEL
MCF7 = system: MCF7
MOLT-4 = system: MOLT-4
Malme-3M = system: Malme-3M
NCI-H226 = system: NCI-H226
NCI-H23 = system: NCI-H23
NCI-H460 = system: NCI-H460
NCI-H522 = system: NCI-H522
NCI/ADR-RES = system: NCI/ADR-RES
OVCAR-3 = system: OVCAR-3
OVCAR-4 = system: OVCAR-4
OVCAR-5 = system: OVCAR-5
OVCAR-8 = system: OVCAR-8
RPMI-8226 = system: RPMI-8226
RXF 393 = system: RXF 393
SF-268 = system: SF-268
SF-295 = system: SF-295
SF-539 = system: SF-539
SK-MEL-28 = system: SK-MEL-28
SK-MEL-2 = system: SK-MEL-2
SK-MEL-5 = system: SK-MEL-5
SK-OV-3 = system: SK-OV-3
SN12C = system: SN12C
SNB-19 = system: SNB-19
SNB-75 = system: SNB-75
SNB-78 = system: SNB-78
SW-620 = system: SW-620
U-251 = system: U-251
UACC-257 = system: UACC-257
UACC-62 = system: UACC-62
UO-31 = system: UO-31
XF498 = system: XF498
786-0 = system: 786-0
BT-549 = system: BT-549
CAKI-1 = system: CAKI-1
DU-145 = system: DU-145
Hs-578T = system: Hs-578T
M14 = system: M14
MDA-MB-231 = system: MDA-MB-231
MDA-MB-435 = system: MDA-MB-435
MDA-N = system: MDA-N
PC-3 = system: PC-3
SR = system: SR
T47D = system: T47D
TK-10 = system: TK-10

Measured: GI50

CSCC[C@@H](NC(=O)[C@H](CC(C)C)NC(=O)C(Cc1cnc[nH]1)NC(=O)CNC(=O)[C@@H](NC(=O)[C@H](C)NC(=O)[C@H](Cc1cn(C=O)c2ccccc12)NC(=O)[C@H](CCC(N)=O)NC(=O)[C@@H](N)CC(N)=O)C(C)C)C(N)=O (some centres undefined)
inactive: A498 > 100 µM | A549 > 100 µM | CCRF-CEM > 100 µM | COLO 205 > 100 µM | DLD-1 > 100 µM | DMS-114 > 100 µM | DMS-273 > 100 µM | EKVX > 100 µM | HCC 2998 > 100 µM | HCT-116 > 100 µM | HL-60 > 100 µM | HOP-18 > 100 µM | HOP-62 > 100 µM | HT-29 > 100 µM | IGROV-1 > 100 µM | K562 > 100 µM | KM-20L2 > 100 µM | KM12 > 100 µM | LOX IMVI 53.8 µM | M19-MEL > 100 µM | MCF7 > 100 µM | MOLT-4 > 100 µM | Malme-3M > 100 µM | NCI-H226 > 100 µM | NCI-H23 > 100 µM | NCI-H460 > 100 µM | NCI-H522 > 100 µM | NCI/ADR-RES > 100 µM | OVCAR-3 > 100 µM | OVCAR-4 > 100 µM | OVCAR-5 > 100 µM | OVCAR-8 > 100 µM | RPMI-8226 > 100 µM | RXF 393 > 100 µM | SF-268 > 100 µM | SF-295 > 100 µM | SF-539 > 100 µM | SK-MEL-28 > 100 µM | SK-MEL-2 > 100 µM | SK-MEL-5 > 100 µM | SK-OV-3 > 100 µM | SN12C > 100 µM | SNB-19 > 100 µM | SNB-75 > 100 µM | SNB-78 > 100 µM | SW-620 > 100 µM | U-251 > 100 µM | UACC-257 > 100 µM | UACC-62 > 100 µM | UO-31 > 100 µM | XF498 > 100 µM
> 100 µM: HCT-15

CO[C@H](C(=O)[C@@H](O)[C@@H](C)O)[C@@H]1Cc2cc3cc(OC4CC(OC5CC(O)C(O)C(C)O5)C(O)C(C)O4)c(C)c(O)c3c(O)c2C(=O)[C@H]1OC1CC(OC2CC(OC3CC(C)(O)C(O)C(C)O3)C(O)C(C)O2)C(O)C(C)O1 (some centres undefined)
active: 786-0 0.00927 µM | BT-549 0.00689 µM | CAKI-1 0.125 µM | DLD-1 0.334 µM | DMS-114 0.348 µM | DMS-273 0.348 µM | DU-145 0.0438 µM | HCT-116 0.125 µM | HL-60 0.128 µM | HOP-18 0.125 µM | Hs-578T 0.00331 µM | KM-20L2 0.348 µM | M14 0.0196 µM | M19-MEL 0.314 µM | MDA-MB-231 0.0495 µM | MDA-MB-435 0.0197 µM | MDA-N 0.0128 µM | NCI-H226 0.125 µM | OVCAR-8 0.176 µM | PC-3 0.0284 µM | SF-539 0.125 µM | SNB-19 0.125 µM | SNB-78 0.395 µM | SR 0.00526 µM | T47D 0.00406 µM | TK-10 0.129 µM | XF498 0.314 µM
